Values after ≈ are worked out from the molar mass of the structure shown.
What was measured:
Experiment in all cases: MIC, CLSI broth microdilution
Type in all cases: cell-based
[1] = test system: A. baumannii AABA1009 (Fluoroquinolone-resistant); conditions: for MIC AABA 1009: Table 2
Procedure: (§1) Minimum inhibitory concentrations (MIC) were determined by reference Clinical and Laboratory Standards Institute (CLSI) broth microdilution methods per M7-A7 [2006]. Quality control ranges utilizing E. coli ATCC 25922, P. aeruginosa ATCC 27853 and S. aureus ATCC 29213, and interpretive criteria for comparator agents were as published in CLSI M100-S17 [2007]. Briefly, serial two-fold dilutions of the test compounds were prepared at 2× concentration in Mueller Hinton Broth. The compound dilutions were mixed in 96-well assay plates in a 1:1 ratio with bacterial inoculum. The inoculum was prepared by suspension of a colony from an agar plate that was prepared the previous day. Bacteria were suspended in sterile saline and added to each assay plate to obtain a final concentration of 5×10^5 CFU/mL. The plates were incubated at 35° C. for 20 hours in ambient air.

[2] = test system: A. baumannii AABA1065 (Fluoroquinolone-susceptible); conditions: for MIC AABA 1065: Table 2; for MIC: Acinetobacter baumannii, Table 2, read-out: MIC AABA 1065
Procedure: as §1

[3] = test system: E. coli AECO001 (Fluoroquinolone susceptible, ATCC25922); conditions: Table 2, 35° C., 20 hours; for MIC: Escherichia coli, read-out: MIC AECO 001
Procedure: as §1

[4] = test system: E. coli AECO066 (Fluoroquinolone-resistant); conditions: for MIC AECO 066: Table 2; for MIC: Escherichia coli, Table 2, read-out: MIC AECO 066
Procedure: as §1

[5] = test system: P. aeruginosa APAE001 (Fluoroquinolone-susceptible, ATCC27853); conditions: for MIC APAE 001: Table 2; for MIC: Pseudomonas aeruginosa, Table 2, read-out: MIC APAE 001
Procedure: as §1

[6] = test system: P. aeruginosa APAE054 (Fluoroquinolone-resistant); conditions: for MIC APAE 054: Table 2
Procedure: as §1

[7] = test system: S. aureus ASAU001 (Fluoroquinolone-susceptible, ATCC29213); conditions: for MIC ASAU 001: Table 2; for MIC: Staphylococcus aureus, Table 2, read-out: MIC ASAU 001
Procedure: as §1

[8] = test system: S. aureus ASAU1031 (Fluoroquinolone-resistant); conditions: for MIC ASAU 1031: Table 2
Procedure: as §1

[9] = test system: S. pneumoniae ASPN001 (Fluoroquinolone-susceptible, ATCC49619); conditions: for MIC ASPN 001: Table 2
Procedure: as §1

[10] = test system: S. pneumoniae ASPN1027 (Fluoroquinolone-resistant); conditions: for MIC ASPN 1027: Table 2
Procedure: as §1

Row | MIC AABA 1009 [1] | MIC AABA 1065 [2] | MIC AECO 001 [3] | MIC AECO 066 [4] | MIC APAE 054 [6] | MIC ASAU 001 [7] | MIC ASPN 001 [9] | MIC ASPN 1027 [10] | MIC ([1]; Acinetobacter baumannii, Table 2, read-out: MIC AABA 1009) | MIC [2] | MIC [3] | MIC [4] | MIC [5] | MIC ([6]; Pseudomonas aeruginosa, Table 2, read-out: MIC APAE 054) | MIC [7] | MIC ([8]; Staphylococcus aureus, Table 2, read-out: MIC ASAU 1031) | MIC ([9]; Streptococcus pneumoniae, Table 2, read-out: MIC ASPN 001) | MIC ([10]; Streptococcus pneumoniae, Table 2, read-out: MIC ASPN 1027) | Compound | MIC APAE 001 [5] | MIC ASAU 1031 [8]
1 | C (MIC's of greater than 8.0 μg/mL = C) | A (MIC's of 1.0 μg/mL or less = A) | A (MIC's of 1.0 μg/mL or less = A) | C (MIC's of greater than 8.0 μg/mL = C) | C (MIC's of greater than 8.0 μg/mL = C) | A (MIC's of 1.0 μg/mL or less = A) | A (MIC's of 1.0 μg/mL or less = A) | C (MIC's of greater than 8.0 μg/mL = C) |  |  |  |  |  |  |  |  |  |  | CCNC1CC2CCCc3c(c(F)cc4c(=O)c(C(=O)O)cn(C5CC5)c34)N2C1.O=C(O)C(F)(F)F (mixture of isomers) [7B/20, (9S)-4-cyclopropyl-9-(ethylamino)-12-fluoro-1-oxo-4,5,6,7,7a,8,9,10-octahydro-1H-pyrrolo[1′,2′:1,7]-azepino[2,3-h]quinoline-2-carboxylic acid trifluoroacetate] | B (MIC's of greater than 1.0 μg/mL to 8.0 μg/mL = B) | B (MIC's of greater than 1.0 μg/mL to 8.0 μg/mL = B)
2 |  |  |  |  |  |  |  |  | > 8 µg/mL | 1 to 8 µg/mL (≈ 2.81 to 22.4 µM) | ≤ 1 µg/mL | > 8 µg/mL | > 8 µg/mL | > 8 µg/mL | ≤ 1 µg/mL | 1 to 8 µg/mL (≈ 2.81 to 22.4 µM) | ≤ 1 µg/mL | > 8 µg/mL | O=C(O)c1cn(C2CC2)c2c3c(c(F)cc2c1=O)N1CCC[C@H]1CCC3 [1/10] |  | 
3 |  |  |  |  |  |  |  |  |  | > 8 µg/mL | > 8 µg/mL | > 8 µg/mL | > 8 µg/mL |  | > 8 µg/mL |  |  |  | O=C1CC2CCCN2c2c(F)cc3c(=O)c(C(=O)O)cn(C4CC4)c3c2N1 (stereo not drawn) [32/3] |  | 
4 |  |  |  |  |  |  |  |  |  | > 8 µg/mL | > 8 µg/mL | > 8 µg/mL | > 8 µg/mL |  | 1 to 8 µg/mL (≈ 2.9 to 23.2 µM) |  |  |  | O=C(O)c1cn(C2CC2)c2c3c(c(F)cc2c1=O)N1CCCC1CO3 (stereo not drawn) [Comparative Compound 1, reference compound] |  | 

Row | Compound | MIC AABA 1009 [1] | MIC AABA 1065 [2] | MIC AECO 001 [3] | MIC AECO 066 [4] | MIC APAE 054 [6] | MIC ASAU 001 [7] | MIC ASPN 001 [9] | MIC ASPN 1027 [10] | MIC ([1]; Acinetobacter baumannii, Table 2, read-out: MIC AABA 1009) | MIC [2] | MIC [3] | MIC [4] | MIC [5] | MIC ([6]; Pseudomonas aeruginosa, Table 2, read-out: MIC APAE 054) | MIC [7] | MIC ([8]; Staphylococcus aureus, Table 2, read-out: MIC ASAU 1031) | MIC ([9]; Streptococcus pneumoniae, Table 2, read-out: MIC ASPN 001) | MIC ([10]; Streptococcus pneumoniae, Table 2, read-out: MIC ASPN 1027) | MIC APAE 001 [5] | MIC ASAU 1031 [8]
5 | NCC1CCN2c3c(F)cc4c(=O)c(C(=O)O)cn(C5CC5)c4c3C=CCC12.O=C(O)C(F)(F)F (racemic) [24/rac-16, (7aS*,8S*)-8-(Aminomethyl)-4-cyclopropyl-12-fluoro-1-oxo-4,7,7a,8,9,10-hexahydro-1H-pyrrolo[1′,2′:1,7]aze-pino-[2,3-h]quinoline-2-carboxylic acid trifluoroacetate] | C (MIC's of greater than 8.0 μg/mL = C) | A (MIC's of 1.0 μg/mL or less = A) | A (MIC's of 1.0 μg/mL or less = A) | C (MIC's of greater than 8.0 μg/mL = C) | C (MIC's of greater than 8.0 μg/mL = C) | A (MIC's of 1.0 μg/mL or less = A) | A (MIC's of 1.0 μg/mL or less = A) | B (MIC's of greater than 1.0 μg/mL to 8.0 μg/mL = B) |  |  |  |  |  |  |  |  |  |  | B (MIC's of greater than 1.0 μg/mL to 8.0 μg/mL = B) | B (MIC's of greater than 1.0 μg/mL to 8.0 μg/mL = B)
6 | NCC1CCN2c3c(F)cc4c(=O)c(C(=O)O)cn(C5CC5)c4c3CCCC12.O=C(O)C(F)(F)F (racemic) [24/rac-17, (7aS*,8S*)-8-(Aminomethyl)-4-cyclopropyl-12-fluoro-1-oxo-4,5,6,7,7a,8,9,10-octahydro-1H-pyrrolo[1′,2′:1,7]-azepino[2,3-h]quinoline-2-carboxylic acid trifluoroacetate] | C (MIC's of greater than 8.0 μg/mL = C) | A (MIC's of 1.0 μg/mL or less = A) | A (MIC's of 1.0 μg/mL or less = A) | C (MIC's of greater than 8.0 μg/mL = C) | C (MIC's of greater than 8.0 μg/mL = C) | A (MIC's of 1.0 μg/mL or less = A) | A (MIC's of 1.0 μg/mL or less = A) | B (MIC's of greater than 1.0 μg/mL to 8.0 μg/mL = B) |  |  |  |  |  |  |  |  |  |  | B (MIC's of greater than 1.0 μg/mL to 8.0 μg/mL = B) | B (MIC's of greater than 1.0 μg/mL to 8.0 μg/mL = B)
7 | N[C@H]1C[C@H]2CN=Cc3c(c(F)cc4c(=O)c(C(=O)O)cn(C5CC5)c34)N2C1.O=C(O)C(F)(F)F [5/10, (3aS,5S)-5-amino-13-cyclopropyl-8-fluoro-10-oxo-3a,4,5,6,10,13-hexahydro-3H-pyrrolo[2′,′:3,4][1,4]diazepino[5,6-h]quinoline-11-carboxylic acid trifluoroacetate] | C (MIC's of greater than 8.0 μg/mL = C) | B (MIC's of greater than 1.0 μg/mL to 8.0 μg/mL = B) | A (MIC's of 1.0 μg/mL or less = A) | C (MIC's of greater than 8.0 μg/mL = C) | C (MIC's of greater than 8.0 μg/mL = C) | B (MIC's of greater than 1.0 μg/mL to 8.0 μg/mL = B) | B (MIC's of greater than 1.0 μg/mL to 8.0 μg/mL = B) | C (MIC's of greater than 8.0 μg/mL = C) |  |  |  |  |  |  |  |  |  |  | B (MIC's of greater than 1.0 μg/mL to 8.0 μg/mL = B) | C (MIC's of greater than 8.0 μg/mL = C)
8 | N[C@H]1C[C@H]2CNCc3c(c(F)cc4c(=O)c(C(=O)O)cn(C5CC5)c34)N2C1.O=C(O)C(F)(F)F.O=C(O)C(F)(F)F [5/11, (3aS,5S)-5-amino-13-cyclopropyl-8-fluoro-10-oxo-2,3,3a,4,5,6,10,13-octahydro-1H-pyrrolo[2′,1′:3,4][1,4]diazepino[5,6-h]quinoline-11-carboxylic acid bis(trifluoroacetate)] | C (MIC's of greater than 8.0 μg/mL = C) | B (MIC's of greater than 1.0 μg/mL to 8.0 μg/mL = B) | A (MIC's of 1.0 μg/mL or less = A) | C (MIC's of greater than 8.0 μg/mL = C) | C (MIC's of greater than 8.0 μg/mL = C) | B (MIC's of greater than 1.0 μg/mL to 8.0 μg/mL = B) | B (MIC's of greater than 1.0 μg/mL to 8.0 μg/mL = B) | C (MIC's of greater than 8.0 μg/mL = C) |  |  |  |  |  |  |  |  |  |  | B (MIC's of greater than 1.0 μg/mL to 8.0 μg/mL = B) | C (MIC's of greater than 8.0 μg/mL = C)
9 | NC1CCN2c3c(F)cc4c(=O)c(C(=O)O)cn(C5CC5)c4c3COCC12.O=C(O)C(F)(F)F [6/7, (3aS,4R)-4-amino-13-cyclopropyl-8-fluoro-10-oxo-3a,4,5,6,10,13-hexahydro-1H,3H-pyrrolo[2′,1′:3,4][1,4]oxazepino[5,6-h]quinoline-1′-carboxylic acid trifluoroacetate] | B (MIC's of greater than 1.0 μg/mL to 8.0 μg/mL = B) | A (MIC's of 1.0 μg/mL or less = A) | A (MIC's of 1.0 μg/mL or less = A) | B (MIC's of greater than 1.0 μg/mL to 8.0 μg/mL = B) | C (MIC's of greater than 8.0 μg/mL = C) | A (MIC's of 1.0 μg/mL or less = A) | A (MIC's of 1.0 μg/mL or less = A) | A (MIC's of 1.0 μg/mL or less = A) |  |  |  |  |  |  |  |  |  |  | A (MIC's of 1.0 μg/mL or less = A) | B (MIC's of greater than 1.0 μg/mL to 8.0 μg/mL = B)
10 | N[C@H]1C[C@H]2CCCc3c(c(F)cc4c(=O)c(C(=O)O)cn(C5CC5)c34)N2C1.O=C(O)C(F)(F)F [7B/17, (7aR,9S)-9-Amino-4-cyclopropyl-12-fluoro-1-oxo-4,5,6,7,7a,8,9,10-octahydro-1H-pyrrolo[1′,′:1,7]-azepino[2,3-h]quinoline-2-carboxylic acid trifluoroacetate] | C (MIC's of greater than 8.0 μg/mL = C) | A (MIC's of 1.0 μg/mL or less = A) | A (MIC's of 1.0 μg/mL or less = A) | B (MIC's of greater than 1.0 μg/mL to 8.0 μg/mL = B) | C (MIC's of greater than 8.0 μg/mL = C) | A (MIC's of 1.0 μg/mL or less = A) | A (MIC's of 1.0 μg/mL or less = A) | B (MIC's of greater than 1.0 μg/mL to 8.0 μg/mL = B) |  |  |  |  |  |  |  |  |  |  | B (MIC's of greater than 1.0 μg/mL to 8.0 μg/mL = B) | B (MIC's of greater than 1.0 μg/mL to 8.0 μg/mL = B)
